Each structure is given as a SMILES string. pKd: −log10 of the molar value. Values joined by “and” are separate entries in the source; they are usually repeats but may differ in a detail not shown here. Equal values may be shown once.

The target in experiment [1] is B/Memphis cap-midlink double domain (Influenza B virus, UniProt Q5V8X3). Kind of experiment: biochemical. It is filed as binding, influenza B/Memphis/13/03.
The test system of experiment [2] is isolated influenza A PB2 cap-binding domain. Particulars: cited from earlier work.
A further experiment has as its system influenza B strains. Particulars: cited from earlier work.

Sequence of B/Memphis cap-midlink double domain (Q5V8X3 249-540 limits assumed): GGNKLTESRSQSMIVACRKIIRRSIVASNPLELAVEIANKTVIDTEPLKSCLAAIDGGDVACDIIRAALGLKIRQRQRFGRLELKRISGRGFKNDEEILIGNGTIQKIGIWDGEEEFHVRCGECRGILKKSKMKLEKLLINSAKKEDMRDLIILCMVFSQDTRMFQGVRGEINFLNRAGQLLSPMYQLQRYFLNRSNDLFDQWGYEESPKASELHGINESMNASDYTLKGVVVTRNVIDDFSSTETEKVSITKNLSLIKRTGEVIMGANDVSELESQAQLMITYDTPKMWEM

In the case of `O=C(O)[C@H]1C2CCC(CC2)[C@@H]1Nc1nc(-c2c[nH]c3ncc(F)cc23)ncc1F` [VX-787], the pKd is 5.92 in experiment [1]; ~7.62 and 7.62 in experiment [2] (read-out: affinity to cap-binding domain alone). Also, in experiment [2], the “times tighter binding than m^7GTP” value is recorded as roughly 60 times. In addition, the “potency against influenza B strains” value with influenza B strains is “no potency”.
